From the kinase profiling compilation of Christmann-Franck et al. (2016)

Key:
Assay in all cases: radiometric filter-binding kinase assay, Kinase HotSpot
Conditions in all cases: compound 0.5 µM; ATP 10 µM
AURKC (human) = AURKC (human) (UniProt Q9UQB9)
CSNK2A1 (human) = CSNK2A1 (human) (UniProt P68400)
ITK (human) = ITK (human) (UniProt Q08881)
GSG2 (human) = GSG2 (human) (UniProt Q8TF76)
MAP2K1 (human) = MAP2K1 (human) (UniProt Q02750)
CSNK2A2 (human) = CSNK2A2 (human) (UniProt P19784)
PTK2B (human) = PTK2B (human) (UniProt Q14289)
MAP2K2 (human) = MAP2K2 (human) (UniProt P36507)
[1] = tested on: SGK1 (human), O00141 [S422D]
RPS6KA6 KD1 KD2 (human) = RPS6KA6 KD1 KD2 (human) (UniProt Q9UK32)
MAPK10 (human) = MAPK10 (human) (UniProt P53779)
MAP4K5 (human) = MAP4K5 (human) (UniProt Q9Y4K4)
INSR (human) = INSR (human) (UniProt P06213)
CDK2 CCNE1 (human) = CDK2 CCNE1 (human) (UniProt P24941+P24864)
MAP3K9 (human) = MAP3K9 (human) (UniProt P80192)
LIMK1 (human) = LIMK1 (human) (UniProt P53667)
RPS6KA4 KD2 (human) = RPS6KA4 KD2 (human) (UniProt O75676)
STK3 (human) = STK3 (human) (UniProt Q13188)
SRPK2 (human) = SRPK2 (human) (UniProt P78362)
FLT3 (human) = FLT3 (human) (UniProt P36888)
GSK3A (human) = GSK3A (human) (UniProt P49840)
BMX (human) = BMX (human) (UniProt P51813)
FGFR1 (human) = FGFR1 (human) (UniProt P11362)
CDK1 CCNA2 (human) = CDK1 CCNA2 (human) (UniProt P06493+P20248)
NTRK3 (human) = NTRK3 (human) (UniProt Q16288)
DMPK (human) = DMPK (human) (UniProt Q09013)
NTRK2 (human) = NTRK2 (human) (UniProt Q16620)
STK4 (human) = STK4 (human) (UniProt Q13043)
MARK1 (human) = MARK1 (human) (UniProt Q9P0L2)
BLK (human) = BLK (human) (UniProt P51451)
PRKACA (human) = PRKACA (human) (UniProt P17612)
CSNK1G3 (human) = CSNK1G3 (human) (UniProt Q9Y6M4)
PHKG1 (human) = PHKG1 (human) (UniProt Q16816)
TXK (human) = TXK (human) (UniProt P42681)
EPHA1 (human) = EPHA1 (human) (UniProt P21709)
BRSK2 (human) = BRSK2 (human) (UniProt Q8IWQ3)
DYRK3 (human) = DYRK3 (human) (UniProt O43781)
WNK3 (human) = WNK3 (human) (UniProt Q9BYP7)
CDK7 CCNH MNAT1 (human) = CDK7 CCNH MNAT1 (human) (UniProt P50613+P51948+P51946)
EPHA2 (human) = EPHA2 (human) (UniProt P29317)
NEK2 (human) = NEK2 (human) (UniProt P51955)
PRKCE (human) = PRKCE (human) (UniProt Q02156)

Chain of RPS6KA6 KD1 KD2 (human) (Q9UK32 whole entry, looked up): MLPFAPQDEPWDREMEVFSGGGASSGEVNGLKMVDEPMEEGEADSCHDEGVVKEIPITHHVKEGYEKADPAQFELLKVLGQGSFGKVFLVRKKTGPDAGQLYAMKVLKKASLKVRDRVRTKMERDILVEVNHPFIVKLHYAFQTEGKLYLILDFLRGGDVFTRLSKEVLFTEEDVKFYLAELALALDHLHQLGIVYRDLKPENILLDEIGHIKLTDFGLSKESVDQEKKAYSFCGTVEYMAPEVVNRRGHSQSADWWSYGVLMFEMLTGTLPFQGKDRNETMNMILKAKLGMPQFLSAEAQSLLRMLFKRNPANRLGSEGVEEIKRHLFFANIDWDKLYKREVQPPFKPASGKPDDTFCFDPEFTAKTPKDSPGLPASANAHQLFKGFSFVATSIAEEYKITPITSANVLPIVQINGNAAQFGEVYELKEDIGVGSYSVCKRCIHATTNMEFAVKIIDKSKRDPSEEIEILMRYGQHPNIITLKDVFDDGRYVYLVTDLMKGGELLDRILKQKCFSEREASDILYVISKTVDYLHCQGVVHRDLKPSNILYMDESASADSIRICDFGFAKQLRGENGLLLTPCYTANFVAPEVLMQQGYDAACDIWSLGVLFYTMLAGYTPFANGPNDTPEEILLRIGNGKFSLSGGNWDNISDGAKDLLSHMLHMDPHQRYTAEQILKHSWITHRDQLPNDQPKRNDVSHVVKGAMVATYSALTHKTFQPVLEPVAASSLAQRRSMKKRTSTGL
Chain of CSNK2A1 (human) (P68400 whole entry, looked up): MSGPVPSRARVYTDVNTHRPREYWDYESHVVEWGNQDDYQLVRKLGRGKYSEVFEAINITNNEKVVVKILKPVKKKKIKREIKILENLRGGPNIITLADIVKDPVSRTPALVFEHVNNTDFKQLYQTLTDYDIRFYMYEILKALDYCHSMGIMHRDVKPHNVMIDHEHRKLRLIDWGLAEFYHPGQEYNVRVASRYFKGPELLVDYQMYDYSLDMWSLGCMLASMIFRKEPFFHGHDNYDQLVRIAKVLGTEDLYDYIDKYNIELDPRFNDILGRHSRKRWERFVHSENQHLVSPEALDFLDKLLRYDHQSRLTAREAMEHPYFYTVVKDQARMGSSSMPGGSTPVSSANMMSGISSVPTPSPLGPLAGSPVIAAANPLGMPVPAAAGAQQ
Chain of GSK3A (human) (P49840 whole entry, looked up): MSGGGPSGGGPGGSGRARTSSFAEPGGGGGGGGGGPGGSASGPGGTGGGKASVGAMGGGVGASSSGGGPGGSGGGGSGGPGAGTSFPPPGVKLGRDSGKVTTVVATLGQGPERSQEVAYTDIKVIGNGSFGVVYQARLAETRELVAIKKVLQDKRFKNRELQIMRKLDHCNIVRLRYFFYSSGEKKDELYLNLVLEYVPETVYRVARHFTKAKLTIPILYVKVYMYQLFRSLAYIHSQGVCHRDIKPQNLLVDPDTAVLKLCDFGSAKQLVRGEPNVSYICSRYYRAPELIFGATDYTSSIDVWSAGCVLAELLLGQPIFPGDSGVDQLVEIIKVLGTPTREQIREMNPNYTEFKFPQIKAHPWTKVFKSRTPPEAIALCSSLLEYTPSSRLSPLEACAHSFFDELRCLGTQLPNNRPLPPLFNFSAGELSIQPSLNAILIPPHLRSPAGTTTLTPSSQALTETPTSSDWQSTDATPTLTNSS
Chain of EPHA2 (human) (P29317 whole entry, looked up): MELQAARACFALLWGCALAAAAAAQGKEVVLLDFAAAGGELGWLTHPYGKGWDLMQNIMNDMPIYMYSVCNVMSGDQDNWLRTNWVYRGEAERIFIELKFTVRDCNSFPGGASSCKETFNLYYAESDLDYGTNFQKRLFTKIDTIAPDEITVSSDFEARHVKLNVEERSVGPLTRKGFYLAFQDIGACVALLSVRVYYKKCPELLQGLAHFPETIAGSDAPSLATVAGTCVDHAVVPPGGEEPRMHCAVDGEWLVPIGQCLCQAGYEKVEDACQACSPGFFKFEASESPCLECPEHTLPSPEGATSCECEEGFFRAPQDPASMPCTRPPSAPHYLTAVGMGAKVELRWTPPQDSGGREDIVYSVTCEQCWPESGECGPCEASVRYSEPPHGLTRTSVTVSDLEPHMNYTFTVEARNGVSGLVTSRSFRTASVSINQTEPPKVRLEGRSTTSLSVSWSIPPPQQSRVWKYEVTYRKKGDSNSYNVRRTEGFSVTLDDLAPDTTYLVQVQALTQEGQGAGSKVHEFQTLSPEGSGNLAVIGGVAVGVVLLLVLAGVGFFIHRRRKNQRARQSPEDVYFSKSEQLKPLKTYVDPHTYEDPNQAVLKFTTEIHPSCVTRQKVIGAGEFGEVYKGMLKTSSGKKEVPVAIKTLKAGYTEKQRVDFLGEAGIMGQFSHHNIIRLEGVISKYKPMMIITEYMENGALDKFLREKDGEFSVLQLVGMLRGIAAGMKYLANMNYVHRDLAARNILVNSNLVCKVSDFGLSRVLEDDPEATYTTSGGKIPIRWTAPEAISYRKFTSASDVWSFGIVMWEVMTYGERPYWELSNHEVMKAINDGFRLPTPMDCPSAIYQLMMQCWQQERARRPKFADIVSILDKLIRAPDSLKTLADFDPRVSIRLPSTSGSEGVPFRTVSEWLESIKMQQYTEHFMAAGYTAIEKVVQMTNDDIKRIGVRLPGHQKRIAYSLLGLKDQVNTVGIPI
Chain of MAPK10 (human) (P53779 whole entry, looked up): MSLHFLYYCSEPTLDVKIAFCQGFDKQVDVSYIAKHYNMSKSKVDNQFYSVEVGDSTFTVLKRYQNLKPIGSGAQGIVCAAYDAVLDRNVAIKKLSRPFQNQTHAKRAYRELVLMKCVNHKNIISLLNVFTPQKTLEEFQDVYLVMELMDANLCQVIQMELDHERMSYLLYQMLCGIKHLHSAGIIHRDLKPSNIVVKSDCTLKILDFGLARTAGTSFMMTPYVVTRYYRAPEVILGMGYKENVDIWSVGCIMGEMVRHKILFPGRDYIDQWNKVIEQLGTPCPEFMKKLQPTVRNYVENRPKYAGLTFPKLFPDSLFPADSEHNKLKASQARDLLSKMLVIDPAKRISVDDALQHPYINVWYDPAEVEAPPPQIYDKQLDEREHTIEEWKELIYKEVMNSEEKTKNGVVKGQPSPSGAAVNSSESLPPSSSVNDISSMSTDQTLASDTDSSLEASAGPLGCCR
Chain of CSNK2A2 (human) (P19784 whole entry, looked up): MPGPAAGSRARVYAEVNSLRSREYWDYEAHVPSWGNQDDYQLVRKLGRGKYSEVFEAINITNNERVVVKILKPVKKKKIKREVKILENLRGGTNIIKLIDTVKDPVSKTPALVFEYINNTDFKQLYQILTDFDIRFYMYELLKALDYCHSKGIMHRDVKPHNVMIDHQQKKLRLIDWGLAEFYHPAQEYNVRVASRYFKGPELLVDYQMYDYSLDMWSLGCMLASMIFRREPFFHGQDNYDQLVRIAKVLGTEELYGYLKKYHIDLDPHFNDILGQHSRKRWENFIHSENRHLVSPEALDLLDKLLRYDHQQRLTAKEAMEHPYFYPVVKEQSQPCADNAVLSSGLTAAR
Chain of PHKG1 (human) (Q16816 whole entry, looked up): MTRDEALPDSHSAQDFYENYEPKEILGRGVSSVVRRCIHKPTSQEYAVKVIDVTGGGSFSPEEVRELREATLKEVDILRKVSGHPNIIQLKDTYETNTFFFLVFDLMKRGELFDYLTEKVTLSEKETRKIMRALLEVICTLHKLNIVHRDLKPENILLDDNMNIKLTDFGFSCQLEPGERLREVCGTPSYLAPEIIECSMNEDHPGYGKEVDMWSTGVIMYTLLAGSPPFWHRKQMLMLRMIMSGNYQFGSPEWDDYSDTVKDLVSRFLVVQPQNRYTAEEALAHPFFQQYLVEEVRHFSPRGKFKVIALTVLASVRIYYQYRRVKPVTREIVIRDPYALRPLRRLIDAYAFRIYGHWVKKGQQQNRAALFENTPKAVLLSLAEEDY
Chain of MAP2K2 (human) (P36507 whole entry, looked up): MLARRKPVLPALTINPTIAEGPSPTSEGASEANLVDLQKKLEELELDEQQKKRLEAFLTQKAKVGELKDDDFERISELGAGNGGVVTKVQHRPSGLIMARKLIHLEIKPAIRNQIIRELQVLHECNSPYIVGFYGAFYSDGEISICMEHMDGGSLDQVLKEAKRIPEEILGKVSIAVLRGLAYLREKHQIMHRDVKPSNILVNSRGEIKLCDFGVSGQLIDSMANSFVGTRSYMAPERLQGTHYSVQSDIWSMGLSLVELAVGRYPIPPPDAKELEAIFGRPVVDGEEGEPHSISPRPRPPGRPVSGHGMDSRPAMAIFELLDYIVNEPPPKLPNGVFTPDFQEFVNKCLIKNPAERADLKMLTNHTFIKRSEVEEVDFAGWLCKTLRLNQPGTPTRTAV
Chain of BLK (human) (P51451 whole entry, looked up): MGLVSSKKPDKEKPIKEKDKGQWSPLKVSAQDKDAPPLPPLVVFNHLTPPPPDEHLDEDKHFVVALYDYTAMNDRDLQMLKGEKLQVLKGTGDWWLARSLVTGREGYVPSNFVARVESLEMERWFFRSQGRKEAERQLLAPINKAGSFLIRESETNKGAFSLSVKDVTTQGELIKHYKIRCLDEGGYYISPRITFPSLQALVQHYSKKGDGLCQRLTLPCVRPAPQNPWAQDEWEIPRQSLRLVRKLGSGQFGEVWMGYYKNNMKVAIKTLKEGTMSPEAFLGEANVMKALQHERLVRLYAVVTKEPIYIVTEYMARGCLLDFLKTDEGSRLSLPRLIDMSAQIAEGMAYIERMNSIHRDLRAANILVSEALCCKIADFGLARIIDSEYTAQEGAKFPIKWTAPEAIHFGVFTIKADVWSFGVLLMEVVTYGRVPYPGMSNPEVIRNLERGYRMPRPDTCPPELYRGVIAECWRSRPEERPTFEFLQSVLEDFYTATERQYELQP

O=c1c2ccccc2[nH]c(=S)n1CCN1CCC(=C(c2ccc(F)cc2)c2ccc(F)cc2)CC1
residual activity (AURKC (human)): 99.4% | residual activity (CSNK2A1 (human)): 97.9% | residual activity (ITK (human)): 97.1% | residual activity (GSG2 (human)): 95.4% | residual activity (MAP2K1 (human)): 97.5% | residual activity (CSNK2A2 (human)): 97.7% | residual activity (PTK2B (human)): 98.5% | residual activity (MAP2K2 (human)): 101% | residual activity [1]: 96% | residual activity (RPS6KA6 KD1 KD2 (human)): 101% | residual activity (MAPK10 (human)): 76.2% | residual activity (MAP4K5 (human)): 98.8% | residual activity (INSR (human)): 94.3% | residual activity (CDK2 CCNE1 (human)): 97.3% | residual activity (MAP3K9 (human)): 111% | residual activity (LIMK1 (human)): 98.4% | residual activity (RPS6KA4 KD2 (human)): 103% | residual activity (STK3 (human)): 102% | residual activity (SRPK2 (human)): 94.1% | residual activity (FLT3 (human)): 104% | residual activity (GSK3A (human)): 104% | residual activity (BMX (human)): 85.5% | residual activity (FGFR1 (human)): 105% | residual activity (CDK1 CCNA2 (human)): 96.8% | residual activity (NTRK3 (human)): 98.9% | residual activity (DMPK (human)): 108% | residual activity (NTRK2 (human)): 106% | residual activity (STK4 (human)): 103% | residual activity (MARK1 (human)): 99.7% | residual activity (BLK (human)): 102% | residual activity (PRKACA (human)): 101% | residual activity (CSNK1G3 (human)): 97.1% | residual activity (PHKG1 (human)): 101% | residual activity (TXK (human)): 100% | residual activity (EPHA1 (human)): 107% | residual activity (BRSK2 (human)): 99.8% | residual activity (DYRK3 (human)): 101% | residual activity (WNK3 (human)): 107% | residual activity (CDK7 CCNH MNAT1 (human)): 99.6% | residual activity (EPHA2 (human)): 105% | residual activity (NEK2 (human)): 100% | residual activity (PRKCE (human)): 100%

O=C1NC(=O)c2cc(Nc3ccc(F)cc3)c(Nc3ccc(F)cc3)cc21
residual activity (AURKC (human)): 90.8% | residual activity (CSNK2A1 (human)): 95.7% | residual activity (ITK (human)): 87.3% | residual activity (GSG2 (human)): 95.1% | residual activity (MAP2K1 (human)): 103% | residual activity (CSNK2A2 (human)): 104% | residual activity (PTK2B (human)): 111% | residual activity (MAP2K2 (human)): 89.5% | residual activity [1]: 103% | residual activity (RPS6KA6 KD1 KD2 (human)): 97.4% | residual activity (MAPK10 (human)): 97.3% | residual activity (MAP4K5 (human)): 89.5% | residual activity (INSR (human)): 98.3% | residual activity (CDK2 CCNE1 (human)): 94.3% | residual activity (MAP3K9 (human)): 102% | residual activity (LIMK1 (human)): 95.9% | residual activity (RPS6KA4 KD2 (human)): 102% | residual activity (STK3 (human)): 90.7% | residual activity (SRPK2 (human)): 92.3% | residual activity (FLT3 (human)): 91.5% | residual activity (GSK3A (human)): 88.2% | residual activity (BMX (human)): 95.3% | residual activity (FGFR1 (human)): 92.1% | residual activity (CDK1 CCNA2 (human)): 96.1% | residual activity (NTRK3 (human)): 95.6% | residual activity (DMPK (human)): 108% | residual activity (NTRK2 (human)): 91.9% | residual activity (STK4 (human)): 101% | residual activity (MARK1 (human)): 98.9% | residual activity (BLK (human)): 94.3% | residual activity (PRKACA (human)): 94.5% | residual activity (CSNK1G3 (human)): 90.7% | residual activity (PHKG1 (human)): 94.8% | residual activity (TXK (human)): 84.1% | residual activity (EPHA1 (human)): 97.4% | residual activity (BRSK2 (human)): 96.8% | residual activity (DYRK3 (human)): 97.1% | residual activity (WNK3 (human)): 92.7% | residual activity (CDK7 CCNH MNAT1 (human)): 100% | residual activity (EPHA2 (human)): 94.3% | residual activity (NEK2 (human)): 96.3% | residual activity (PRKCE (human)): 97.8%

Cn1cc(/C=C2\C(=O)Nc3ccc(S(N)(=O)=O)cc32)c2ccccc21
residual activity (AURKC (human)): 37.1% | residual activity (CSNK2A1 (human)): 84.7% | residual activity (ITK (human)): 21.4% | residual activity (GSG2 (human)): 93.1% | residual activity (MAP2K1 (human)): 63.6% | residual activity (CSNK2A2 (human)): 66% | residual activity (PTK2B (human)): 43.1% | residual activity (MAP2K2 (human)): 94.7% | residual activity [1]: 71.8% | residual activity (RPS6KA6 KD1 KD2 (human)): 6.55% | residual activity (MAPK10 (human)): 93.1% | residual activity (MAP4K5 (human)): 13.4% | residual activity (INSR (human)): 87.4% | residual activity (CDK2 CCNE1 (human)): 77.9% | residual activity (MAP3K9 (human)): 28.1% | residual activity (LIMK1 (human)): 74.1% | residual activity (RPS6KA4 KD2 (human)): 71.2% | residual activity (STK3 (human)): 23.4% | residual activity (SRPK2 (human)): 51.4% | residual activity (FLT3 (human)): 1.56% | residual activity (GSK3A (human)): 100% | residual activity (BMX (human)): 77% | residual activity (FGFR1 (human)): 50.2% | residual activity (CDK1 CCNA2 (human)): 56.9% | residual activity (NTRK3 (human)): 1.18% | residual activity (DMPK (human)): 106% | residual activity (NTRK2 (human)): 4.83% | residual activity (STK4 (human)): 10.7% | residual activity (MARK1 (human)): 40.4% | residual activity (BLK (human)): 42.9% | residual activity (PRKACA (human)): 104% | residual activity (CSNK1G3 (human)): 109% | residual activity (PHKG1 (human)): 20.6% | residual activity (TXK (human)): 51.3% | residual activity (EPHA1 (human)): 101% | residual activity (BRSK2 (human)): 65.5% | residual activity (DYRK3 (human)): 89.7% | residual activity (WNK3 (human)): 99% | residual activity (CDK7 CCNH MNAT1 (human)): 73.7% | residual activity (EPHA2 (human)): 93% | residual activity (NEK2 (human)): 89.1% | residual activity (PRKCE (human)): 77.3%
